Experimental data from patent publication US20150190421A1, “POLOXAMERS FOR THE IMPROVEMENT OF RESPIRATORY FUNCTION” (PHRIXUS PHARMACEUTICALS, INC., priority 2012, published 2015).
Entries after “also recorded” stand apart in the source; their conditions may differ. Marks after values point to notes of the source that are not given here.

Key:
[1] = tested on: mdx mouse model of Duchenne Muscular Dystrophy; assay: Whole Body Plethysmography respiration monitoring, mdx mice, 22 weeks daily s.q. dosing; type: in vivo
Description: Animals. Male C57BL/10SnJ, hereafter referred to as wild-type (WT), and male mdx C57B1/10ScSn-Dmdmdx mice were used in the study. All protocols were approved by the University of Michigan (UM) UCUCA and all studies were performed in facilities run by the University of Michigan Unit of Laboratory Animal Medicine. […] Mice were purchased from Jackson Laboratories and aged in UM facilities. All ages given are ±2 weeks. Mice were randomized into groups upon receipt from Jackson Laboratories in order to minimize the need for additional cages. […] All compounds were administered subcutaneously.
Respiration was monitored using a Buxco Whole Body Plethysmography (WBP) monitoring chambers for mouse Cat. No. PLY4211 (Buxco Research Systems, Wilmington, N.C.) according to the manufacturer's instructions. In this protocol animals are unrestrained and un-anesthetized. Monitoring was performed in the room in which the animals were housed. The mice were monitored for 2 months prior to initiation of treatment to acclimate the mice to the procedure and establish baseline respiratory parameters done with the last weeks reading prior to initiation of dosing. Mice were randomized into groups based on tidal volume measurements. Upon initiation of dosing, mice were monitored every 2 weeks. Mice were placed in monitoring chambers and allowed to acclimate for 15 minutes prior to recording respiratory parameters. Respiration was then monitored for 10 minutes. Each mouse was monitored in the same chamber for each reading throughout the study to minimize variability.
During acclimation and measurements, the room door was shut and technician movement and room noise was kept to a minimum to allow for complete acclimation. […] Chambers were wiped clean between animals. Data was monitored and collected using FinePoint software (Cat. No. SFT4000) purchased from Buxco Research Systems (Wilmington, N.C.). […] Comparisons between groups of daily, every other day or weekly dosed animals were done by one-way ANOVA using the Neumann-Keuls post-hoc test. Significance was P<0.05. N=10-12 animals per group.
Abbreviations used include the following (units): F, respiration rate (breaths/minute), TV, tidal volume, (ml); TV/BWT, ratio of tidal volume to body weight, (mL/kg); MV, minute volume, (mL/min); Penh, enhanced pause, (no units); Rpef, the ratio of the time from start of expiration to peak expiratory flow to Te (no units); PIF, peak inspiratory flow, (mL sec); PEF, peak expiratory flow, (mL/sec); Te, expiratory time (sec); Ti, inspiratory time, (sec); Tr, relaxation time, (sec).
Respiration was monitored every 2 weeks by WBP.

[2] = tested on: diaphragm muscle of mdx mice; assay: Diaphragm histology (centralized nuclei, fiber size and density, fibrosis), mdx mice; type: in vivo, mouse; conditions: prednisone 1 mg/kg QD s.q., 22 weeks
Description: Analysis of centralized nuclei. One marker of degeneration is the amount of compensatory regeneration occurring within the muscle. Since newly regenerating fibers have centrally located nuclei, the percentage of fibers with centralized nuclei (CN) from the diaphragm of each animal was determined (FIG. 2A).
Analysis of fiber size and density. The cross-sectional area of regenerating or recently regenerated fibers is expected to be smaller than that of mature muscle fibers. The cross sectional area of approximately 50 muscle fibers was measured from each mouse (600 fibers/group).
Analysis of fibrosis. Fibrosis was measured as the percentage of […] area/total area in Masson's trichrome stained sections.

[3] = Table 3, prednisone 1 mg/kg daily, 22 wks, mean ± S.D.
[4] = prednisone 1 mg/kg QD s.q., 22 weeks, mean ± S.D.

C[C@]12C=CC(=O)C=C1CC[C@@H]1[C@@H]2C(=O)C[C@@]2(C)[C@H]1CC[C@]2(O)C(=O)CO [Prednisone, prednisone]
TV, 22 wks [1, 3]: 0.332 ± 0.021 mL | TV/BW, 22 wks [1, 3]: 9.9 ± 1.2 mL/kg | increase in TV/BW compared with mdx saline (cause) ([1]; prednisone 1 mg/kg QD s.q., 22 weeks): due to a loss of body weight and not due to improvement in TV | F (respiration rate) [1, 4]: 328 ± 30 breaths/min | MV (minute volume) [1, 4]: 107 ± 11^b ml/min | PEF (peak expiratory flow) [1, 4]: 4.2 ± 0.4^b mL/sec | PIF (peak inspiratory flow) [1, 4]: 8.3 ± 0.8^c mL/sec | Penh (enhanced pause) [1, 4]: 0.393 ± 0.080 | Rpef [1, 4]: 0.496 ± 0.085 | TV (tidal volume) [1, 4]: 0.332 ± 0.021^c mL | Ti (inspiratory time) [1, 4]: 0.068 ± 0.006 s | Tr (relaxation time) [1, 4]: 0.094 ± 0.018 s | percentage of fibers with centralized nuclei (CN), diaphragm [2]: nearly the same percentage of fibers with CN as the mdx saline group; also recorded: higher percentage of muscle fibers in the regeneration process than in the P-188 treated groups
